Measurements reported in patent US20180015017A1, “USE OF GLUCOSYLGLYCEROL” (Bitop AG, priority 2008, published 2018).

Columns and labels:
SOD-2 = test: Expression of SOD-2 mRNA in fibroblasts (33P-labeled cDNA chip, phosphor imaging); assay type: cell-based, human; conditions: for Upregulation of SOD-2: relative amount of hybridized targets (radioactivity, phosphor imaging): NHDF fibroblasts, 1-% (w/w) aqueous solution
Method: (§1) In these tests appropriate cell cultures were treated with a glucosylglycerol solution and the transcribed mRNA quantified. For this purpose the mRNA was first extracted to produce a ^33P labeled target with the help of a reverse transcriptase. Following this, these targets were applied to a cDNA chip and the radioactivity measured by means of the phosphor imaging method. The cDNA chip contained an array of the cDNAs of various proteins.
(§2) The investigations were carried out with epidermal keratinocytes (NHEK, normal human epidermal keratinocytes) and dermal fibroblasts (NHDF, normal human dermal fibroblasts). In the case of the keratinocytes a 0.5-% (w/w) and in the case of the fibroblasts a 1-% (w/w) aqueous glucosylglycerol solution was used for the treatment.
Fibroblasts: DMEM (Invitrogen 21969035), blended with L-glutamine 2 mM (Invitrogen 25030024), Penicillin 50 Ul/ml/Streptomycin 50 μg/ml (Invitrogen 15070063), fetal calf serum 10% (FCS, Invitrogen 10270098).
(§3) Culturing took place for a period of 24 and 96 hours. At the end of the incubation period the cells were washed with PBS solution (Invitrogen 14190094).
(§4) The extraction of mRNA of each culture was achieved using TriReagent as per a standard protocol. The relevant cDNAs with ^33P-labeled targets was produced by reverse transcription of mRNA using [α^33P]-dATP and oligodT.
(§5) The labeled cDNA targets were hybridized to the specific cDNA probes covalently fixed to minichips. After thorough washing the relative amount of the hybridized targets was determined by means of the phosphor imaging method. This analysis was performed by measuring the radioactivity by means of a “Cyclone” Phosphor Imager (Packard Instruments; 72 hours exposure time) and using the ImageQuant TL-Software (Amersham Biosiences).

SOD-1 = test: Expression of SOD-1 mRNA in keratinocytes (33P-labeled cDNA chip, phosphor imaging); assay type: cell-based, human; conditions: for Upregulation of the cytosolic SOD-1: relative amount of hybridized targets (radioactivity, phosphor imaging): NHEK keratinocytes, 0.5-% (w/w) aqueous solution; for increase of the expression of SOD-1: keratinocytes, 0.5-% glucosylglycerol solution
Method: as §1, §2
Keratinocytes: Keratinocyte-SFM (Invitrogen 17005-034) blended with epidermal growth factor (EGF) 0.25 ng/ml, pituitary extract (PE) 25 μg/ml (Invitrogen 3700015), Gentamycin […] (Sigma G1397).
as §3, §4, §5

Compound: OCC(CO)O[C@H]1O[C@H](CO)[C@@H](O)[C@H](O)[C@H]1O [glucosylglycerol, 2-O-α-D-glucosylglycerol]
- Upregulation of SOD-2: relative amount of hybridized targets (radioactivity, phosphor imaging) (SOD-2; 24 h, control 16.5): 419
- Upregulation of SOD-2: relative amount of hybridized targets (radioactivity, phosphor imaging) (SOD-2; 96 h, control 9.1): 313
- higher expression of SOD-2 (SOD-2; fibroblasts, 1-% glucosylglycerol solution, within 24 hours): 25.4 times
- increase of expression of SOD-2 (SOD-2; fibroblasts, 1-% glucosylglycerol solution, within 96 hours): 34.4 fold
- Upregulation of the cytosolic SOD-1: relative amount of hybridized targets (radioactivity, phosphor imaging) (SOD-1; 24 h, control 18.2): 85
- Upregulation of the cytosolic SOD-1: relative amount of hybridized targets (radioactivity, phosphor imaging) (SOD-1; 96 h, control 9.3): 182
- increase of the expression of SOD-1 (SOD-1; within 24 hours): 4.7 times
- increase of the expression of SOD-1 (SOD-1; within 96 hours): 19.6 times
